Columns and labels:
BV-2 = assay: Anti-inflammatory activity in mouse BV2 cells assessed as reduction in LPS-induced NO production pre-treated before LPS stimulation for 24 hrs by Griess reagent-based assay; assay type: functional, cell-based
[1] = target: Mitogen-activated protein kinase 9 (Homo sapiens) (UniProt P45984); assay: Inhibition of human JNK2 assessed as enzyme activity at 30 uM using ATF2 as substrate by [gamma-33P]-ATP assay relative to control; set-up: scale not given: the % may be the effect or the level left
[2] = target: T1, Dual serine/threonine and tyrosine protein kinase (Homo sapiens) (UniProt Q6XUX3); assay: Inhibition of human RIPK5 assessed as enzyme activity at 30 uM using MBP as substrate by [gamma-33P]-ATP assay relative to control; set-up: scale not given: the % may be the effect or the level left
T1 sequence (whole entry): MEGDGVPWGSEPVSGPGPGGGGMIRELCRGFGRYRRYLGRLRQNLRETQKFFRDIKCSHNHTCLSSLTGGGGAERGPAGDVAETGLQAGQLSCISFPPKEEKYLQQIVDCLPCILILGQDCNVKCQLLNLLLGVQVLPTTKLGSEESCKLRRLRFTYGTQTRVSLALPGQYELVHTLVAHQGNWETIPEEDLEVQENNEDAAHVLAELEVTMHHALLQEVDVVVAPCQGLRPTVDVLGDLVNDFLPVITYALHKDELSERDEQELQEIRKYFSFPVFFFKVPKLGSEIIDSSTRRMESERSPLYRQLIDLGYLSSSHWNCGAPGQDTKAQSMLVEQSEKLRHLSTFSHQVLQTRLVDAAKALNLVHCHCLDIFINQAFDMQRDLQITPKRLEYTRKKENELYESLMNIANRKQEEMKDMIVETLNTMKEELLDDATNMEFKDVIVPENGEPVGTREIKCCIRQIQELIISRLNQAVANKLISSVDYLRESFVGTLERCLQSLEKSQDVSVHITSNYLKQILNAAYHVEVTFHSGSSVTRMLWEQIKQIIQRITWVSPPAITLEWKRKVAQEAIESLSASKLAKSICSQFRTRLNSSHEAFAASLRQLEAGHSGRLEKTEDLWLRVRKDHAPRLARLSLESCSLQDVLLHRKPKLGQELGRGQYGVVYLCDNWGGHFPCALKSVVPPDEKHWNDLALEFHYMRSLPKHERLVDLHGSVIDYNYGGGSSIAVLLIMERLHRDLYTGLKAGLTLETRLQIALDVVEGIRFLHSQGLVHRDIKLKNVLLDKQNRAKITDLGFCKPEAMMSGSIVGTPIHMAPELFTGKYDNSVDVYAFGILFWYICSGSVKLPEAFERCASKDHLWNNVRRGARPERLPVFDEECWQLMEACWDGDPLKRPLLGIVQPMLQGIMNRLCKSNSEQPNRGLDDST

[3] = target: T2, Serine/threonine-protein kinase haspin (Homo sapiens) (UniProt Q8TF76); assay: Inhibition of human haspin assessed as enzyme activity at 30 uM using Histone H3 as substrate by [gamma-33P]-ATP assay relative to control; set-up: scale not given: the % may be the effect or the level left
T2 sequence (whole entry): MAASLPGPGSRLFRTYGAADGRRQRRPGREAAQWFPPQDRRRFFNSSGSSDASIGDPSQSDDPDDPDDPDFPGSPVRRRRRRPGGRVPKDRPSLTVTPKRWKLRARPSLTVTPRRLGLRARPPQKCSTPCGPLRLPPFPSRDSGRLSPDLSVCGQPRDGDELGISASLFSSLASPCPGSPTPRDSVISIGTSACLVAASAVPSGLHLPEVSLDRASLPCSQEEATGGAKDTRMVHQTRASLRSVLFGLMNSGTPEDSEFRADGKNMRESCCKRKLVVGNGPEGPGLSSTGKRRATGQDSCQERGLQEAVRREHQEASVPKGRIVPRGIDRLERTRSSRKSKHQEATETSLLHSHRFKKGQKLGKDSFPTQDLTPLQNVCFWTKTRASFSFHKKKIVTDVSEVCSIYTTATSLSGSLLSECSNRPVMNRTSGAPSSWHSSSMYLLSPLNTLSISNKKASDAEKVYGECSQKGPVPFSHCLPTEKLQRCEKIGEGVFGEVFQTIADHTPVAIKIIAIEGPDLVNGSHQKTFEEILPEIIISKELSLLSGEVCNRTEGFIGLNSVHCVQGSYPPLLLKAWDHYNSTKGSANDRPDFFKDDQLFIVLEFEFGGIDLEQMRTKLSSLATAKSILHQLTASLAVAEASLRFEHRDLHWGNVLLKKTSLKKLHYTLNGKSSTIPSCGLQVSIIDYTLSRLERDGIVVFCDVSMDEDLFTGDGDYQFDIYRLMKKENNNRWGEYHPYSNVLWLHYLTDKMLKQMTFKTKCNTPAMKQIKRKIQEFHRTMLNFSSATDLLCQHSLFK

Mus musculus = assay: Cognition enhancing effect in ICR mouse model of scopolamine-induced memory impairment assessed as spontaneous alteration at 10 mg/kg by Y-maze test (reference value: 45.14%); assay type: functional

Sequence of Mitogen-activated protein kinase 9 (Homo sapiens) (P45984 whole entry, looked up): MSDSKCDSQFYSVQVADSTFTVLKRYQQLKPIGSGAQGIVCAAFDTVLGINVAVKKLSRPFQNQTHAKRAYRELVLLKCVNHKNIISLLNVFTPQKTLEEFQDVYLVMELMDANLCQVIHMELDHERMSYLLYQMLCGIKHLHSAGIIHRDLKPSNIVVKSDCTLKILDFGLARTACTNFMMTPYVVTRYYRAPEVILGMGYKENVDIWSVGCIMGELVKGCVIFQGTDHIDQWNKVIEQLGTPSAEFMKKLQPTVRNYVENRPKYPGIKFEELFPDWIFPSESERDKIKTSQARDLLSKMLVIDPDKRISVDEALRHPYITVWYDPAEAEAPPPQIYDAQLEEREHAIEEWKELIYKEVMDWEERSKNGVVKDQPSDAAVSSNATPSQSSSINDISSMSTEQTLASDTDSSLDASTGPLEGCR

For `O=C1C=CC2(C=C1)OCC(Cc1cc(C(F)(F)F)cc(C(F)(F)F)c1)C(=O)N2c1ccccc1` (stereo not given), the IC50 (BV-2) was 70 nM, the Activity [1] was 57.8 to 58.8% and the Activity [2] was 58.6 to 59.9%. For the same compound, the Activity [3] was 66.1 to 66.8% and the Activity (Mus musculus) was 59.62%.
